For 25 molecules, inhibition results are on record in US20100105729A1, “ARYL-SUBSTITUTED HETEROCYCLIC PDE4 INHIBITORS AS ANTI-INFLAMMATORY AGENTS” (KALYPSYS, INC., priority 2006, published 2010).

Where only a bound is given, the exact number is not on record here.

For the experiment, the target named is T1, PDE4B (Homo sapiens, UniProt Q07343).
T1 construct: hexa-histidine (His6) (N); made in house
T1 sequence (Q07343 330-659 limits assumed, species assumed): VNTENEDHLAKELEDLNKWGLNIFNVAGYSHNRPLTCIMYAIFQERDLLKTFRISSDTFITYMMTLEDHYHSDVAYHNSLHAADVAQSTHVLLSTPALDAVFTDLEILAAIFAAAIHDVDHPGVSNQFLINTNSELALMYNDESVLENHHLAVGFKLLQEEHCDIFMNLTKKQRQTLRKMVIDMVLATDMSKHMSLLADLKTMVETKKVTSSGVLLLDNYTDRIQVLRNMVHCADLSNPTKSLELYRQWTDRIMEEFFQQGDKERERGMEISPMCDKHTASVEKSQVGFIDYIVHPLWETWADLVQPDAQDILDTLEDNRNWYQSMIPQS
Kind of experiment: PDE4 IMAP Assay. Type of experiment: biochemical. The settings on record: catalytic domain of PDE4B, fluorescence polarization. An excerpt: Compounds may be screened for functional potency in in vitro biochemical assays for their ability to inhibit the activity of phosphodiesterase (PDE) enzymes. A commercial PDE assay, Molecular Device's PDE IMAP assay, was modified and utilized to measure the inhibitory activity of compounds on PDE isoforms. The IMAP technology is based on the high affinity binding of phosphate by immobilized metal (MIII) coordination complexes on nanoparticles. This IMAP “binding reagent” complexes with phosphate groups on the nucleotide monophosphates generated in the reaction. Such binding causes a change in the rate of the molecular motion of the nucleotide, and results in an increase in the fluorescence polarization value observed for the fluorescent label attached to the substrate. PDE inhibitors prevent the generation of nucleotide monophosphates and the subsequent increase in polarization value observed for the fluorescent label attached to the substrate. The catalytic domain of PDE4B was fused to an amino-terminus hex-histadine affinity tag and purified. PDE4B enzyme was incubated with compounds for 10 minutes. Fluorescently labeled cyclic AMP substrates were then added to the PDE enzyme mix and incubated for 2 hours at room temperature. IMAP binding reagent was then added to the enzyme mix, incubated for 10-30 minutes and fluorescent polarization of the fluorescently labeled substrate was read either with the Perkin Elmer Viewlux or Molecular Devices Acquest or Analyst. Roflumilast and Rolipram are the positive controls used in the assay.
Take `COc1ccc(C2=NN(S(=O)(=O)c3ccc(C)cc3)C(c3cccc(OC)c3OC)C2)cc1OC` (stereo not shown) [Example 91, 5-(2,3-dimethoxyphenyl)-3-(3,4-dimethoxyphenyl)-1-tosyl-4,5-dihydro-1H-pyrazole]: the inhibition at 10 µM is < 50%.
In the case of `COc1ccc(C2=NN(C(=O)c3ccccc3Cl)C(c3cccc(OC)c3OC)C2)cc1OC` (stereo not shown) [Example 30, (2-chlorophenyl)(5-(2,3-dimethoxyphenyl)-3-(3,4-dimethoxyphenyl)-4,5-dihydro-1H-pyrazol-1-yl)methanone], the inhibition at 10 µM was < 50%.
`CCc1ccc(C2CC(c3ccc(OC)c(OC)c3)=NN2C(=O)CCCC(=O)O)cc1` (stereo not shown) [Example 18, 5-(3-(3,4-dimethoxyphenyl)-5-(4-ethylphenyl)-4,5-dihydro-1H-pyrazol-1-yl)-5-oxopentanoic acid]: the inhibition at 10 µM was < 50%.
In the case of `COc1ccc(C2=NN(S(C)(=O)=O)C(c3ccc(C)cc3)C2)cc1OC` (stereo not shown) [Example 13, 3-(3,4-dimethoxyphenyl)-1-(methylsulfonyl)-5-p-tolyl-4,5-dihydro-1H-pyrazole], the inhibition at 10 µM was < 50%.
The same measure for `COc1ccc(C2=NN(C(C)=O)C(c3ccc(F)cc3)C2)cc1OC` (stereo not shown) [Example 102, 1-(3-(3,4-dimethoxyphenyl)-5-(4-fluorophenyl)-4,5-dihydro-1H-pyrazol-1-yl)ethanone]: ≥ 50%.
Next, `COc1ccc(C2=NN(C(=O)CCC(=O)O)C(c3ccc(F)cc3)C2)cc1OC` (stereo not shown) [Example 72, 4-(3-(3,4-dimethoxyphenyl)-5-(4-fluorophenyl)-4,5-dihydro-1H-pyrazol-1-yl)-4-oxobutanoic acid]: < 50%; `COc1ccc(C2=NN(S(=O)(=O)c3ccc(C)cc3)C(c3ccc(F)cc3)C2)cc1OC` (stereo not shown) [Example 55, 3-(3,4-dimethoxyphenyl)-5-(4-fluorophenyl)-1-tosyl-4,5-dihydro-1H-pyrazole]: < 50%; `COc1ccc2nc(Cl)c(C3CC(c4ccc(OC)c(OC)c4)=NN3C(=O)c3ccco3)cc2c1` (stereo not shown) [Example 9, (5-(2-chloro-6-methoxyquinolin-3-yl)-3-(3,4-dimethoxyphenyl)-4,5-dihydro-1H-pyrazol-1-yl)(furan-2-yl)methanone]: < 50%.
Next, `COc1ccc(C2=NN(C(=O)c3ccc(Br)o3)C(c3ccccc3F)C2)cc1OC` (stereo not shown) [Example 49, (5-bromofuran-2-yl)(3-(3,4-dimethoxyphenyl)-5-(2-fluorophenyl)-4,5-dihydro-1H-pyrazol-1-yl)methanone]: ≥ 50%; `COc1ccc(C2=NN(C(=O)c3ccccc3)C(c3ccc(N(C)C)cc3)C2)cc1OC` (stereo not shown) [Example 37, (3-(3,4-dimethoxyphenyl)-5-(4-(dimethylamino)phenyl)-4,5-dihydro-1H-pyrazol-1-yl)(phenyl)methanone]: < 50%.
For the molecule `COc1ccc(C2=NN(C(=O)CCC(=O)O)C(c3cc4ccccc4nc3Cl)C2)cc1OC` (stereo not shown) [Example 27, 4-(5-(2-chloroquinolin-3-yl)-3-(3,4-dimethoxyphenyl)-4,5-dihydro-1H-pyrazol-1-yl)-4-oxobutanoic acid], the inhibition at 10 µM was < 50%.
The same measure for `COc1ccc(C2=NN(C(=O)c3cc(OC)c(OC)c(OC)c3)C(c3ccc(OC)c(OC)c3)C2)cc1OC` (stereo not shown) [Example 78, (3,5-bis(3,4-dimethoxyphenyl)-4,5-dihydro-1H-pyrazol-1-yl)(3,4,5-trimethoxyphenyl)methanone]: < 50%.
Next, `COc1ccc(C2=NN(S(=O)(=O)c3ccccc3)C(c3ccccc3OC)C2)cc1OC` (stereo not shown) [Example 61, 3-(3,4-dimethoxyphenyl)-5-(2-methoxyphenyl)-1-(phenylsulfonyl)-4,5-dihydro-1H-pyrazole]: < 50%; `COc1ccc(C2CC(c3ccc(OC)c(OC)c3)=NN2S(C)(=O)=O)cc1` (stereo not shown) [Example 14, 3-(3,4-dimethoxyphenyl)-5-(4-methoxyphenyl)-1-(methylsulfonyl)-4,5-dihydro-1H-pyrazole]: < 50%.
Consider `COc1ccc2cc(C3CC(c4ccc(OC)c(OC)c4)=NN3C(=O)CCCC(=O)O)c(Cl)nc2c1` (stereo not shown) [Example 17, 5-(5-(2-chloro-7-methoxyquinolin-3-yl)-3-(3,4-dimethoxyphenyl)-4,5-dihydro-1H-pyrazol-1-yl)-5-oxopentanoic acid], for which the inhibition at 10 µM was < 50%.
Next, `COc1ccc(C2=NN(C(=O)c3ccc(Br)o3)C(c3ccc(C)cc3)C2)cc1OC` (stereo not shown) [Example 48, (5-bromofuran-2-yl)(3-(3,4-dimethoxyphenyl)-5-p-tolyl-4,5-dihydro-1H-pyrazol-1-yl)methanone]: ≥ 50%; `COc1ccc(C2=NN(C(=O)c3ccccc3Cl)C(c3cn(-c4ccccc4)nc3-c3ccccc3)C2)cc1OC` (stereo not shown) [Example 26, (2-chlorophenyl)(3-(3,4-dimethoxyphenyl)-5-(1,3-diphenyl-1H-pyrazol-4-yl)-4,5-dihydro-1H-pyrazol-1-yl)methanone]: < 50%.
Next, `COc1ccc(C2=NN(S(=O)(=O)c3ccccc3)C(c3ccccc3F)C2)cc1OC` (stereo not shown) [Example 58, 3-(3,4-dimethoxyphenyl)-5-(2-fluorophenyl)-1-(phenylsulfonyl)-4,5-dihydro-1H-pyrazole]: < 50%; `COc1cccc(C2CC(c3ccc(OC)c(OC)c3)=NN2S(C)(=O)=O)c1` (stereo not shown) [Example 4, 3-(3,4-dimethoxyphenyl)-5-(3-methoxyphenyl)-1-(methylsulfonyl)-4,5-dihydro-1H-pyrazole]: < 50%.
Next, `COc1ccc(C2=NN(S(=O)(=O)c3ccccc3)C(c3cccc(OC)c3OC)C2)cc1OC` (stereo not shown) [Example 90, 5-(2,3-dimethoxyphenyl)-3-(3,4-dimethoxyphenyl)-1-(phenylsulfonyl)-4,5-dihydro-1H-pyrazole]: < 50%; `COc1ccc(C2=NN(C(=O)CCCC(=O)O)C(c3ccc(F)cc3)C2)cc1OC` (stereo not shown) [Example 65, 5-(3-(3,4-dimethoxyphenyl)-5-(4-fluorophenyl)-4,5-dihydro-1H-pyrazol-1-yl)-5-oxopentanoic acid]: < 50%; `COc1ccc2nc(Cl)c(C3CC(c4ccc(OC)c(OC)c4)=NN3C(=O)c3ccccc3)cc2c1` (stereo not shown) [Example 7, (5-(2-chloro-6-methoxyquinolin-3-yl)-3-(3,4-dimethoxyphenyl)-4,5-dihydro-1H-pyrazol-1-yl)(phenyl)methanone]: < 50%.
With `COc1ccc2nc(Cl)c(C3CC(c4ccc(OC)c(OC)c4)=NN3C(=O)c3ccccc3Cl)cc2c1` (stereo not shown) [Example 6, (5-(2-chloro-6-methoxyquinolin-3-yl)-3-(3,4-dimethoxyphenyl)-4,5-dihydro-1H-pyrazol-1-yl)(2-chlorophenyl)methanone], the inhibition at 10 µM is < 50%.
Next, `COc1ccc2cc(C3CC(c4ccc(OC)c(OC)c4)=NN3C(=O)c3ccco3)c(Cl)nc2c1` (stereo not shown) [Example 10, (5-(2-chloro-7-methoxyquinolin-3-yl)-3-(3,4-dimethoxyphenyl)-4,5-dihydro-1H-pyrazol-1-yl)(furan-2-yl)methanone]: < 50%; `COc1ccc(C2CC(c3ccc(OC)c(OC)c3)=NN2C(=O)c2cccs2)cc1` (stereo not shown) [Example 41, (3-(3,4-dimethoxyphenyl)-5-(4-methoxyphenyl)-4,5-dihydro-1H-pyrazol-1-yl)(thiophen-2-yl)methanone]: ≥ 50%.
